Laboratory results as given in PubChem BioAssay (NCI).
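Values below derive from 48-hour exposures of cells grown in 96-well plates, with endpoints linearly interpolated between the two concentrations bracketing the appropriate inhibition level. Abbreviation: GI50, concentration required for 50% inhibition of growth. TGI denotes the concentration required for complete inhibition of growth.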

Experiments:
Assay in all cases: NCI-60 cell line screen, 48 h
SNB-19 CNS = tested on: SNB-19 CNS
CCRF-CEM leukemia = tested on: CCRF-CEM leukemia
SF-268 CNS = tested on: SF-268 CNS
SK-MEL-28 melanoma = tested on: SK-MEL-28 melanoma
MCF7 breast = tested on: MCF7 breast
A549 NSCLC = tested on: A549 NSCLC
SF-295 CNS = tested on: SF-295 CNS
A498 renal = tested on: A498 renal
HS 578T breast = tested on: HS 578T breast
UACC-62 melanoma = tested on: UACC-62 melanoma
SF-539 CNS = tested on: SF-539 CNS
HCT-15 colon = tested on: HCT-15 colon
NCI-H522 lung = tested on: NCI-H522 lung
UO-31 renal = tested on: UO-31 renal
U251 CNS = tested on: U251 CNS
HL-60(TB) leukemia = tested on: HL-60(TB) leukemia
SNB-75 CNS = tested on: SNB-75 CNS
MDA-MB-231 breast = tested on: MDA-MB-231 breast
NCI/ADR-RES ovarian = tested on: NCI/ADR-RES ovarian
T-47D breast = tested on: T-47D breast
PC-3 prostate = tested on: PC-3 prostate
COLO 205 colon = tested on: COLO 205 colon
SK-MEL-2 melanoma = tested on: SK-MEL-2 melanoma
MDA-MB-435 = tested on: MDA-MB-435
M14 melanoma = tested on: M14 melanoma
RPMI-8226 leukemia = tested on: RPMI-8226 leukemia
HOP-92 NSCLC = tested on: HOP-92 NSCLC
OVCAR-8 ovarian = tested on: OVCAR-8 ovarian
CAKI-1 renal = tested on: CAKI-1 renal
LOX IMVI melanoma = tested on: LOX IMVI melanoma
SW-620 colon = tested on: SW-620 colon
MOLT-4 leukemia = tested on: MOLT-4 leukemia
MALME-3M melanoma = tested on: MALME-3M melanoma
MDA-MB-468 breast = tested on: MDA-MB-468 breast
OVCAR-3 ovarian = tested on: OVCAR-3 ovarian
OVCAR-5 ovarian = tested on: OVCAR-5 ovarian
TK-10 renal = tested on: TK-10 renal
ACHN renal = tested on: ACHN renal
HT29 colon = tested on: HT29 colon
KM12 colon = tested on: KM12 colon
NCI-H460 lung = tested on: NCI-H460 lung
SK-OV-3 ovarian = tested on: SK-OV-3 ovarian
RXF 393 renal = tested on: RXF 393 renal
IGROV1 ovarian = tested on: IGROV1 ovarian
EKVX NSCLC = tested on: EKVX NSCLC
UACC-257 melanoma = tested on: UACC-257 melanoma
DU-145 prostate = tested on: DU-145 prostate
BT-549 breast = tested on: BT-549 breast
HCT-116 colon = tested on: HCT-116 colon
NCI-H226 lung = tested on: NCI-H226 lung
SK-MEL-5 melanoma = tested on: SK-MEL-5 melanoma
OVCAR-4 ovarian = tested on: OVCAR-4 ovarian
K-562 leukemia = tested on: K-562 leukemia
786-0 renal = tested on: 786-0 renal
HCC-2998 colon = tested on: HCC-2998 colon
SR leukemia = tested on: SR leukemia
NCI-H23 lung = tested on: NCI-H23 lung
SN12C renal = tested on: SN12C renal
HOP-62 NSCLC = tested on: HOP-62 NSCLC

`CN1CCN(Cc2ccc(NC(=O)c3cncc(C#Cc4cnc5ccc(N[C@H]6CCOC6)nn45)c3)cc2C(F)(F)F)CC1` was tested, and the GI50 (SNB-19 CNS) was 249 nM, the TGI (SNB-19 CNS) was 1120 nM and the GI50 (CCRF-CEM leukemia) was 28.3 nM. The TGI (CCRF-CEM leukemia) was 687 nM, the GI50 (SF-268 CNS) was 180 nM and the TGI (SF-268 CNS) was 917 nM. For the same molecule, the GI50 (SK-MEL-28 melanoma) was 235 nM, the TGI (SK-MEL-28 melanoma) was 996 nM and the GI50 (MCF7 breast) was 46.1 nM. The TGI (MCF7 breast) was 274 nM, the GI50 (A549 NSCLC) was 175 nM and the TGI (A549 NSCLC) was 643 nM. For the same molecule, the GI50 (SF-295 CNS) was 291 nM, the TGI (SF-295 CNS) was 1260 nM and the GI50 (A498 renal) was 278 nM. The TGI (A498 renal) was 490 nM, the GI50 (HS 578T breast) was 62.1 nM and the TGI (HS 578T breast) was 393 nM. The GI50 (UACC-62 melanoma) was 151 nM, the TGI (UACC-62 melanoma) was 801 nM and the GI50 (SF-539 CNS) was 21 nM. The TGI (SF-539 CNS) was 102 nM, the GI50 (HCT-15 colon) was 321 nM and the TGI (HCT-15 colon) was 1290 nM. It also gave a GI50 (NCI-H522 lung) of 103 nM, a TGI (NCI-H522 lung) of 249 nM and a GI50 (UO-31 renal) of 962 nM. It also gave a TGI (UO-31 renal) of 2290 nM, a GI50 (U251 CNS) of 219 nM and a TGI (U251 CNS) of 1020 nM. It also gave a GI50 (HL-60(TB) leukemia) of 43.7 nM, a TGI (HL-60(TB) leukemia) of 704 nM and a GI50 (SNB-75 CNS) of 144 nM. It also gave a TGI (SNB-75 CNS) of 330 nM, a GI50 (MDA-MB-231 breast) of 41.4 nM and a TGI (MDA-MB-231 breast) of 231 nM. The GI50 (NCI/ADR-RES ovarian) was 5820 nM, the TGI (NCI/ADR-RES ovarian) was 25300 nM and the GI50 (T-47D breast) was 704 nM. The TGI (T-47D breast) was 5150 nM, the GI50 (PC-3 prostate) was 185 nM and the TGI (PC-3 prostate) was 3690 nM. The GI50 (COLO 205 colon) was 88 nM, the TGI (COLO 205 colon) was 197 nM and the GI50 (SK-MEL-2 melanoma) was 152 nM. For the same molecule, the TGI (SK-MEL-2 melanoma) was 350 nM, the GI50 (MDA-MB-435) was 95.8 nM and the TGI (MDA-MB-435) was 813 nM. It also gave a GI50 (M14 melanoma) of 103 nM, a TGI (M14 melanoma) of 315 nM and a GI50 (RPMI-8226 leukemia) of 237 nM. The TGI (RPMI-8226 leukemia) was 1230 nM, the GI50 (HOP-92 NSCLC) was 13.7 nM and the TGI (HOP-92 NSCLC) was 82.2 nM. For the same molecule, the GI50 (OVCAR-8 ovarian) was 252 nM, the TGI (OVCAR-8 ovarian) was 1130 nM and the GI50 (CAKI-1 renal) was 148 nM. It also gave a TGI (CAKI-1 renal) of 511 nM, a GI50 (LOX IMVI melanoma) of 56.6 nM and a TGI (LOX IMVI melanoma) of 153 nM. For the same molecule, the GI50 (SW-620 colon) was 72.3 nM, the TGI (SW-620 colon) was 367 nM and the GI50 (MOLT-4 leukemia) was 46.8 nM. For the same molecule, the TGI (MOLT-4 leukemia) was 866 nM, the GI50 (MALME-3M melanoma) was 98.2 nM and the TGI (MALME-3M melanoma) was 323 nM. The GI50 (MDA-MB-468 breast) was 90.3 nM, the TGI (MDA-MB-468 breast) was 211 nM and the GI50 (OVCAR-3 ovarian) was 183 nM. The TGI (OVCAR-3 ovarian) was 1030 nM, the GI50 (OVCAR-5 ovarian) was 142 nM and the TGI (OVCAR-5 ovarian) was 536 nM. For the same molecule, the GI50 (TK-10 renal) was 254 nM, the TGI (TK-10 renal) was 828 nM and the GI50 (ACHN renal) was 278 nM. The TGI (ACHN renal) was 980 nM, the GI50 (HT29 colon) was 90.3 nM and the TGI (HT29 colon) was 512 nM. It also gave a GI50 (KM12 colon) of 6.9 nM, a TGI (KM12 colon) of 526 nM and a GI50 (NCI-H460 lung) of 144 nM. For the same molecule, the TGI (NCI-H460 lung) was 828 nM, the GI50 (SK-OV-3 ovarian) was 446 nM and the TGI (SK-OV-3 ovarian) was 2010 nM. For the same molecule, the GI50 (RXF 393 renal) was 108 nM, the TGI (RXF 393 renal) was 274 nM and the GI50 (IGROV1 ovarian) was 136 nM. The TGI (IGROV1 ovarian) was 394 nM, the GI50 (EKVX NSCLC) was 128 nM and the TGI (EKVX NSCLC) was 696 nM. For the same molecule, the GI50 (UACC-257 melanoma) was 483 nM, the TGI (UACC-257 melanoma) was 1990 nM and the GI50 (DU-145 prostate) was 170 nM. It also gave a TGI (DU-145 prostate) of 716 nM, a GI50 (BT-549 breast) of 291 nM and a TGI (BT-549 breast) of 915 nM. The GI50 (HCT-116 colon) was 37 nM, the TGI (HCT-116 colon) was 290 nM and the GI50 (NCI-H226 lung) was 14.7 nM. The TGI (NCI-H226 lung) was 218 nM, the GI50 (SK-MEL-5 melanoma) was 487 nM and the TGI (SK-MEL-5 melanoma) was 1390 nM. The GI50 (OVCAR-4 ovarian) was 260 nM, the TGI (OVCAR-4 ovarian) was 2130 nM and the GI50 (K-562 leukemia) was 6.9 nM. The TGI (K-562 leukemia) was 930 nM, the GI50 (786-0 renal) was 268 nM and the TGI (786-0 renal) was 959 nM. For the same molecule, the GI50 (HCC-2998 colon) was 181 nM, the TGI (HCC-2998 colon) was 866 nM and the GI50 (SR leukemia) was 95 nM. It also gave a TGI (SR leukemia) of 9330 nM, a GI50 (NCI-H23 lung) of 81.4 nM and a TGI (NCI-H23 lung) of 249 nM. The GI50 (SN12C renal) was 33.7 nM, the TGI (SN12C renal) was 398 nM and the GI50 (HOP-62 NSCLC) was 172 nM. It also gave a TGI (HOP-62 NSCLC) of 677 nM.
